The structures appear in SMILES notation. Values joined by “and” are separate entries in the source; they are usually repeats but may differ in a detail not shown here. Equal entries are not always repeated.

In the assay the target is Nonstructural protein 3 (Zika virus, UniProt A0A024AXB9). Nature of the assay: Functional biochemical assay to identify treatments for viral infectious disease that targets Zika NS2B-NS3 protease. Utilizing a direct enzyme activity measurement method, reading the fluorescence intensity is used to characterize the relative potency of inhibitors as IC50. Set-up: species or system PRVABC59.
Chain of Nonstructural protein 3 (A0A024AXB9 whole entry): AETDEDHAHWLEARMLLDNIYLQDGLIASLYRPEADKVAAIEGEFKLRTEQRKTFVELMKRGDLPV
`Brc1csc(CNCCc2nnc[nH]2)c1` returned an IC50 greater than 99.5 µM.

On to `FC(F)(F)c1nc(CNCc2cocn2)cs1`, for which the IC50 was greater than 99.5 µM.

Compound `COc1nc(Cl)c(CSc2nc(C)co2)s1` showed a half-inhibitory concentration (IC50) greater than 99.5 µM.

Compound `NC(=O)c1ccc(Cn2nnc(C=Cc3ccccc3)n2)cc1` yielded an IC50 greater than 99.5 µM.

Turning to `Cc1nnnn1Cc1ncc(Br)s1`, the half-maximal inhibitory concentration (IC50) is greater than 99.5 µM.

Compound `O=S(=O)(CCOc1ccccc1)c1nccs1` yielded an IC50 greater than 99.5 µM.

Compound `NCc1cccc(NC(=O)c2cc(Cl)cc3c2cnn3CC2CC2)c1` returned an IC50 of 3.05 µM.

On to `NCc1cccc(NC(=O)c2cc(Cl)cc(Cl)c2)c1`, for which the IC50 is 5.55 µM.

Regarding `C[C@H]1CCC[C@H](C(=O)Nc2cccc(CN)c2)O1`, the IC50 is greater than 99.5 µM.

The compound `NCc1cccc(NC(=O)[C@H]2C[C@@H](C(F)(F)F)C[C@@H](C(F)(F)F)C2)c1` gave an IC50 greater than 99.5 µM.

Compound `Cc1ccc(S(=O)(=O)N2Cc3ccccc3C[C@@H](C(=O)Nc3cccc(CN)c3)C2)cc1` came in with an IC50 of 43.6 µM.

Turning to `NCCc1ccc(NC(=O)c2cc(Cl)cc(CN)c2)cc1`, the IC50 worked out at 8.04 µM.

Compound `COCC=Cc1cccc([C@@H](NC(=O)OCc2ccccc2)C(=O)Nc2cccc(CN)c2)c1` gave an IC50 of 26.8 µM.

With `C[C@H]1C[C@@H](C(=O)Nc2cccc(CN)c2)CC(=O)N1`, the 50% inhibitory concentration (IC50) was greater than 99.5 µM.

Turning to `O=C(Nc1cc(Cl)cc(C(=O)Nc2cccc(-c3cc[nH]n3)c2)c1)OCc1ccccc1`, the IC50 was greater than 99.5 µM.

Compound `NCc1cccc(NC(=O)C2CCNCC2)c1` yielded an IC50 greater than 99.5 µM.

As for `OCCCCCc1nc(-c2ccc(Br)o2)no1`, the IC50 is greater than 99.5 µM.

`CCn1ncc2c(C(=O)Nc3cccc(CN)c3)cc(C)nc21` showed an IC50 greater than 99.5 µM.

`NCCc1cc(Cl)cc(C(=O)Nc2cccc(CN)c2)c1`: the IC50 was found to be 0.33 µM.

`Cn1cc([C@@H]2C[C@H](C(=O)Nc3cccc(CN)c3)CC(=O)N2)cn1`: the IC50 is greater than 99.5 µM.

For `NCc1cccc(NC(=O)[C@@H](NC(=O)OCc2ccccc2)c2cccc(-c3ccc(CN)cc3F)c2)c1`, the IC50 is 32.3 µM.

In the case of `O=C(NCCc1nc2ccccc2[nH]1)c1cc2ccc(F)cc2s1`, the IC50 was greater than 99.5 µM.

Take `Cc1cc(C(=O)Nc2cccc(CN)c2)nc(C)n1`: the IC50 was greater than 99.5 µM.

`Cc1cc(C(=O)Nc2cccc(CN)c2)c2c(C)nn(CC(=O)NC(C)C)c2n1` yielded a half-inhibitory concentration (IC50) greater than 99.5 µM.

Consider `N[C@@H](CCO)c1cccc(NC(=O)c2cc(Cl)cc(NC(=O)OCc3ccccc3)c2)c1`, for which the IC50 is 39.7 µM.

The compound `CN(C)[C@@H]1CCC[C@@H](C(=O)Nc2cccc(CN)c2)C1` yielded an IC50 greater than 99.5 µM.

As for `C[C@@H](N)c1cccc(NC(=O)[C@H]2[C@H]3CCCCC[C@H]3[C@H]2NC(=O)OCc2ccccc2)c1`, the half-inhibitory concentration (IC50) was 13.1 µM and 12.9 µM.

Compound `Cc1cc(C(=O)Nc2cccc(CN)c2)cc(O)n1` returned an IC50 greater than 99.5 µM.

`Cc1ccc(S(=O)(=O)CCCn2ccc3sccc3c2=O)cc1` gave an IC50 greater than 99.5 µM.

Regarding `COc1ccc(-c2cccc([C@@H](NC(=O)OCc3ccccc3)C(=O)Nc3cccc(CN)c3)c2)cn1`, it took 35.3 µM to reach half-maximal inhibition (IC50).

With `c1coc(CSCc2nc(-c3nc[nH]n3)no2)c1`, the IC50 was greater than 99.5 µM.

On to `NCc1cccc(NC(=O)[C@@H]2[C@H](N)[C@@H]3CCCCC[C@@H]32)c1`, for which the IC50 was greater than 99.5 µM.

In turn, `Cn1cc(NC(=O)c2cc(Cl)cc(NC(=O)OCc3ccccc3)c2)cn1` displayed an IC50 greater than 99.5 µM.

In the case of `NCc1cccc(CNC(=O)[C@H]2[C@H]3CCCCC[C@H]3[C@H]2NC(=O)OCc2ccccc2)c1`, the concentration for half-maximal inhibition (IC50) is 12.3 µM and 59.6 µM and 27 µM.

`NCc1cccc(NC(=O)[C@@H]2CCC[C@]3(CCNC3=O)C2)c1` gave an IC50 greater than 99.5 µM.

`COC(=O)c1cc(NC(=O)OCc2ccccc2)cc(C(=O)Nc2cccc(CN)c2)c1` had an IC50 of 55.7 µM.

In turn, `NCc1cccc(NC(=O)c2c(F)c(Cl)cc(NC(=O)OCc3ccccc3)c2F)c1` came in with an IC50 of 55.6 µM.

Compound `CN(C)CCc1ccc(NC(=O)c2cc(Cl)cc(NC(=O)OCc3ccccc3)c2)cc1` registered an IC50 of 44.5 µM.

Compound `O=C(Nc1cc(Cl)cc(C(=O)Nc2nccc([C@H]3CCCCN3)n2)c1)OCc1ccccc1` had a half-maximal inhibitory concentration (IC50) greater than 99.5 µM.

In turn, `CC(C)[C@@H]1CC[C@@H](C)C[C@H]1C(=O)Nc1cccc(CN)c1` returned an IC50 greater than 99.5 µM.

`NCc1cccc(NC(=O)c2cccc(CN)c2)c1`: the midpoint of inhibition, the IC50, lay at 1.87 µM.

As to `O=C(Nc1ccc(Cl)cc1C(=O)Nc1cccc(C2CCNCC2)c1)OCc1ccccc1`, the IC50 was greater than 99.5 µM.

The compound `NCc1cccc(NC(=O)c2cc(Cl)cc(C(N)=O)c2)c1` yielded an IC50 of 1.35 µM.

As to `COc1ccc2nc(C)cc(C(=O)Nc3cccc(CN)c3)c2c1`, the IC50 is greater than 99.5 µM.

In the case of `NCc1cccc(NC(=O)[C@@]23CCC[C@H](C2)N3C(=O)OCc2ccccc2)c1`, the IC50 is greater than 99.5 µM.

Compound `CN(C)Cc1ccc(NC(=O)c2cc(Cl)cc(NC(=O)OCc3ccccc3)c2)cc1` yielded an IC50 of 70.3 µM.

Compound `NCc1cccc(NC(=O)[C@@H]2CCC[C@H](OC(F)(F)F)C2)c1` had an IC50 greater than 99.5 µM.

For the compound `NCc1cccc(NC(=O)c2cncc(Cl)c2)c1`, 48.5 µM corresponded to half-maximal inhibition (IC50).

Compound `Cc1cc(C(=O)Nc2cccc(CN)c2)cc(NCC(F)(F)F)n1` returned an IC50 greater than 99.5 µM.

For `Cc1cc(C(=O)Nc2cccc(CN)c2)c2nc(C)n(C)c2n1`, the IC50 was greater than 99.5 µM.

Take `Cc1cc(C)c([C@@H](CC(=O)Nc2cccc(CN)c2)NC(=O)OCc2ccccc2)cc1C`: the IC50 is 5.67 µM and 6.27 µM.

For the compound `Cn1cc(-c2cccc([C@@H](NC(=O)OCc3ccccc3)C(=O)Nc3cccc(CN)c3)c2)ccc1=O`, half-maximal inhibition (IC50) required 73.9 µM.

Turning to `CC(F)(F)c1cccc(NC(=O)c2cc(Cl)cc(NC(=O)OCc3ccccc3)c2)c1`, the IC50 is greater than 99.5 µM.

`O=C(Nc1cc(Cl)cc(C(=O)Nc2cccc(-c3nnn[nH]3)c2)c1)OCc1ccccc1` returned an IC50 of 40.8 µM.

As to `C[C@@H]1C[C@@H](C(=O)Nc2cccc(CN)c2)CCO1`, the IC50 is greater than 99.5 µM.

For the compound `CN(C)[C@@H]1CCC[C@H](C(=O)Nc2cccc(CN)c2)C1`, the 50% inhibitory concentration (IC50) is greater than 99.5 µM.

Compound `C[C@@H]1CCC[C@H](C(=O)Nc2cccc(CN)c2)O1` gave an IC50 greater than 99.5 µM.

Regarding `NCc1cccc(NC(=O)c2cc(Br)cc3[nH]ccc23)c1`, half-maximal inhibition (IC50) required 4.73 µM.

In the case of `Cc1cc(C(F)(F)F)nc(C(=O)Nc2cccc(CN)c2)n1`, the IC50 was greater than 99.5 µM.

Consider `Cc1cc(C(=O)Nc2cccc(CN)c2)c2c(C)n[nH]c2n1`, for which the IC50 is greater than 99.5 µM.

`CN(C)CCC(=O)N1CCC([C@@H](NC(=O)OCc2ccccc2)C(=O)Nc2cccc(CN)c2)CC1` yielded a half-inhibitory concentration (IC50) greater than 99.5 µM.

In turn, `NCc1cccc(NC(=O)[C@H]2COCC3(CCC3)O2)c1` showed an IC50 greater than 99.5 µM.

In turn, `Brc1cnc(Sc2ncc[nH]2)nc1` gave an IC50 greater than 99.5 µM.

In turn, `C[C@H]1CN(C)C[C@H](C(=O)Nc2cccc(CN)c2)O1` registered an IC50 greater than 99.5 µM.

As to `NCc1cccc(NC(=O)c2cc(Cl)cc3[nH]ncc23)c1`, the IC50 was determined as 0.886 µM.

Consider `c1cc(-c2nnc(NCc3nnn[nH]3)s2)no1`, for which the IC50 is greater than 99.5 µM.

Turning to `CC[C@@H](Cc1nnn[nH]1)c1ccc(NC(=O)c2cc(Cl)cc(NC(=O)OCc3ccccc3)c2)cc1`, half-maximal inhibition (IC50) was put at 18.7 µM.

`O=C(Nc1cc(Cl)cc(C(=O)Nc2cccc(Cc3nn[nH]n3)c2)c1)OCc1ccccc1` yielded an IC50 of 64.9 µM.

For `COc1ccc(-n2nnnc2SC(F)F)cc1`, the IC50 was greater than 99.5 µM.

In the case of `NCc1cccc(NC(=O)[C@@H](NC(=O)OCc2ccccc2)c2cccc(-c3cncnc3)c2)c1`, the IC50 is greater than 99.5 µM.

For the compound `CC(=O)NCc1cccc(NC(=O)c2cc(Cl)cc(NC(=O)OCc3ccccc3)c2)c1`, the IC50 is greater than 99.5 µM.

`C=C(C)c1cccc([C@@H](NC(=O)OCc2ccccc2)C(=O)Nc2cccc(CN)c2)c1`: inhibition was half-maximal at 9.65 µM (IC50).

Consider `NCc1cccc(NC(=O)c2cccc3c2CCC3)c1`, for which 19.5 µM corresponded to half-maximal inhibition (IC50).

Turning to `CNCc1cc(Cl)cc(C(=O)Nc2cccc(CN)c2)c1`, the IC50 stood at 1.42 µM.

The compound `NCCc1cccc(-c2cccc([C@@H](NC(=O)OCc3ccccc3)C(=O)Nc3cccc(CN)c3)c2)c1` returned an IC50 of 10.5 µM.

`NCc1cccc(NC(=O)[C@@H](NC(=O)OCc2ccccc2)c2cccc(-c3ccc(N)nc3)c2)c1`: half-maximal inhibition (IC50) was put at 43.6 µM.

As for `CC(C)(C)OC(=O)NCc1cc(Br)cc(NC(=O)c2cc(Cl)cc(NC(=O)OCc3ccccc3)c2)c1`, the half-maximal inhibitory concentration (IC50) is greater than 99.5 µM.

`CN(C)CC[C@H](NC(=O)c1cc(Cl)cc(NC(=O)OCc2ccccc2)c1)c1ccccc1` showed an IC50 greater than 99.5 µM.

Regarding `O=S1(=O)CCN(CC#Cc2ccc3sncc3c2)CC1`, the IC50 was greater than 99.5 µM.

Compound `CCc1cccc(NC(=O)[C@]2(Oc3ccc(Br)cc3)CCNC3(CC3)C2)c1` gave an IC50 greater than 99.5 µM.

For the compound `N#Cc1csc(CSc2nnc(C(F)(F)F)s2)n1`, the IC50 was greater than 99.5 µM.

In the case of `c1cc(Cc2noc(CCc3cscn3)n2)no1`, the IC50 is greater than 99.5 µM.

With `NCc1cc(NS(=O)(=O)c2ccc(Oc3ccccc3Cl)cc2)ccc1Cl`, the IC50 is greater than 99.5 µM.

For the compound `CCn1ncc(-c2noc3nc(C)cc(C(=O)Nc4cccc(CN)c4)c23)c1C`, the IC50 was greater than 99.5 µM.

In turn, `NCc1cccc(NC(=O)[C@H]2CCc3nnc(C4CC4)n3C2)c1` had an IC50 greater than 99.5 µM.

The compound `COc1ccc2c(c1)c(C(=O)Nc1cccc(CN)c1)c(C)n2C1CCCC1` had an IC50 greater than 99.5 µM.

In turn, `Cc1cc(Cl)cc(C(=O)Nc2cccc(CN)c2)n1` registered an IC50 greater than 99.5 µM.

Compound `CN1CC=C(c2cccc([C@@H](NC(=O)OCc3ccccc3)C(=O)Nc3cccc(CN)c3)c2)CC1` displayed an IC50 of 67.5 µM.

Turning to `NCc1cccc(NC(=O)c2cc(Cl)cc(CN3CCOCC3)c2)c1`, the IC50 stood at 52.9 µM.

`O=S(=O)(Cc1nnc(Cc2ccccc2)o1)c1ccc(O)cc1` gave an IC50 greater than 99.5 µM.

`CCOc1cccc(-c2ccc(S(=O)(=O)Nc3cc(F)c(Cl)cc3C(=O)O)cc2)c1` gave a half-maximal inhibitory concentration (IC50) of 8.18 µM.

On to `FC(F)(F)c1nnc(COc2cncnc2)s1`, for which the half-maximal inhibitory concentration (IC50) is greater than 99.5 µM.

The compound `NCc1cc(Cl)cc(C(=O)Nc2ccc3c(c2)CNC3)c1` had an IC50 of 0.114 µM.

Compound `C[C@@H](N)c1cc(Cl)cc(C(=O)Nc2cccc(CN)c2)c1` came in with an IC50 of 3.42 µM.

With `CN1CCc2c(cccc2NC(=O)c2cc(Cl)cc(NC(=O)OCc3ccccc3)c2)C1`, the IC50 was greater than 99.5 µM.

In the case of `CSCc1nnc(SCc2ccncc2)o1`, the IC50 is greater than 99.5 µM.

`O=C(Nc1cc(Cl)cc(C(=O)Nc2cccc(-n3nn[nH]c3=O)c2)c1)OCc1ccccc1`: the IC50 stood at 30.8 µM.

(Values after ChEMBL document CHEMBL5604062, “ASAP - ZIKV NS2B-NS3 protease fluorescence dose response” (2024).)
